For one data set, the system named is SHSY-5Y cells. The data set can be described thus: in vitro. Conditions: read-out: LC50 (μM) SHSY-5Y; four hours incubation. How it is done: (§1) The cytotoxicity of compound 3 was assessed in vitro using two standard cell lines, HepG2, derived from a human hepatocellular carcinoma, and SH-SY5Y, derived from a human neuroblastoma, both in the presence and absence of excess iron.
(§2) HepG2 cells were maintained at ˜5% CO2, 37° C., and 95% relative humidity in minimal essential media (MEM) supplemented with 10% fetal bovine serum plus 0.1 mM non-essential amino acids, 2 mM L-glutamine, and penicillin/streptomycin. SH-SY5Y cells were maintained at ˜5% CO2, 37° C., and 95% relative humidity in a mixture of minimal essential media (MEM) and F12 K media (1:1, v:v) supplemented with 10% fetal bovine serum plus 0.1 mM non-essential amino acids, 2 mM L-glutamine, and penicillin/streptomycin. The cells were subcultured every two to three days and plated in tissue culture treated opaque white 96-well plates at a density of 1×10^4 cells/well and incubated at ˜5% CO2, 37° C., and 95% relative humidity overnight prior to initiation of the assay.
(§3) A series of DMSO stocks of the test article at 100× of the final concentration were diluted 1:100 with fresh culture media (final DMSO concentration was 1%). The media from the plated cells was removed and replaced with 100 μL of media containing test article or tamoxifen with final concentrations ranging between 0.01 to 1000 μM in triplicate. Wells containing no cells were used as background controls. Tamoxifen was used as a known positive control and DMSO alone was used as a vehicle control. The cells were incubated for four hours at ˜5% CO2, 37° C., and 95% relative humidity.
(§4) Cell viability was determined using a commercially available kit to determine ATP levels by luminescence. Briefly, the buffer and lyophilized substrate from the kit were equilibrated to room temperature. The buffer was used to reconstitute the substrate just prior to addition to the wells of the cell plate (100 μL per well). The plate was placed into the Tecan Infinite M200 plate reader, agitated for 10 minutes followed by a 10 minute wait period, then read using an integration time of 0.5 seconds with no attenuation.
(§5) The mean luminescence from the test article treated cells was compared to that treated by DMSO only.

A further data set is described as follows: in vitro. The settings on record: human. How it is done:
as §1, §2, §3, §4, §5

A further data set has as its target rat brain MAO-B (Rattus norvegicus (Rat), UniProt P19643). The experiment in a line: In vitro inhibition of rat brain MAO-B (14C-PEA substrate). The data set is classed as biochemical. As to the method: Rats are decapitated and the brains quickly taken into a weighted ice-cold sucrose buffer (0.32 M) and their weights determined. All subsequent procedures are performed at 0° C. The brains are homogenized in 0.32 M sucrose (one part tissue to 20 parts sucrose) in a Teflon glass homogenizer followed by the addition of sucrose buffer to a final concentration of 10% homogenate. The homogenates are centrifuged at 600 g for 15 min. The supernatant fractions are taken out and centrifuged at 4500 g for 30 min, the pellet diluted in 0.32 M sucrose buffer and kept frozen for later assaying of MAO.
MAO-A and MAO-B activities are determined in rat brain homogenate in vitro following incubation with varying concentrations of the test compounds.
The in vitro inhibitory activity of the compounds is tested against rat brain MAO-B. The test compounds are added to buffer containing 10^−7 M clorgylin and are incubated with the tissue homogenate for 30 or 60 min at 37° C. before addition of ^14C-PEA.
The test compound was added to a suitable dilution of the enzyme preparation (70 μg protein for MAO-B and 150 μg MAO-A assay) in 0.1 M phosphate buffer (pH 7.4). The mixture was incubated together with […], a specific inhibitor of MAO-B (for determination of MAO-A) or 0.05 M clorgylin, a specific inhibitor of MAO-A (for determination of MAO-B). Incubation was carried for 0.5 or 1 h at 37° C. before addition of ^14C-5-hydroxytryptamine binoxalate (5-HT) (100 or 400 μM) for determination of MAO-A, or ^14C-phenylethylamine (^14C-PEA) 100 or 400 μM for determination of MAO-B, and incubation continued for 30 min or 20 min, respectively. The reaction was stopped with 2 M ice-cold citric acid, and the metabolites were extracted and determined by liquid-scintillation counting in cpm units.
The reaction was stopped with 2 M ice-cold citric acid, and the metabolites were extracted with ethyl acetate and levels of radioactivity were determined by liquid-scintillation counting in CPM units. All assays were performed at least in duplicate and outcome was expressed as a mean±SEM. Data were analyzed by a Student's t test. Variations were considered statistically significant at a p value of 0.05.
MAO-A and MAO-B activity was measured using radioactive substrates. The substrate for MAO-A was 5 HT and for MAO-B was PEA. When measuring the activity of MAO-A, the MAO-B activity was inhibited with deprenyl and when measuring the activity of MAO-B the activity of MAO-A was inhibited with clorgylin. Blank samples were produced using TCP to inhibit both of the enzymes. The metabolites were extracted to toluene and read in a β-counter. The results are expressed in relative activity and normalized to the amount of protein in the tissue.

In another data set the target is MAO-A (Mus musculus (Mouse), UniProt Q64133). The data set is classed as in vivo, mice. How it is done: For the MAO-inhibition study, mice (6 mice in each group) were injected intraperitoneally (i.p.) with compound 3 at the dosage of 5 or 10 mg/kg; or with M30 at the dosage of 10 mg/kg. Control mice received saline (0.1 mL) i.p. One hour later the mice were killed by cervical dislocation, while striatum and small intestine were removed rapidly and frozen in liquid nitrogen for further analysis. FIGS. 3 and 4 show MAO-A/MAO-B in vivo activity of compound 3 compared to the activity of M30. FIG. 3 presents an MAO inhibition in striatum, and FIG. 4 presents an MAO inhibition in intestine. The percent inhibition was computed based on comparison to control animals.

The text below walks through data of patent US9034303B2, “Neuroprotective and neuro-restorative iron chelators and monoamine oxidase inhibitors and uses thereof” (priority 2010, dated 2015).

pIC50: −log10 of the molar value.

Chain of MAO-A (Q64133 whole entry): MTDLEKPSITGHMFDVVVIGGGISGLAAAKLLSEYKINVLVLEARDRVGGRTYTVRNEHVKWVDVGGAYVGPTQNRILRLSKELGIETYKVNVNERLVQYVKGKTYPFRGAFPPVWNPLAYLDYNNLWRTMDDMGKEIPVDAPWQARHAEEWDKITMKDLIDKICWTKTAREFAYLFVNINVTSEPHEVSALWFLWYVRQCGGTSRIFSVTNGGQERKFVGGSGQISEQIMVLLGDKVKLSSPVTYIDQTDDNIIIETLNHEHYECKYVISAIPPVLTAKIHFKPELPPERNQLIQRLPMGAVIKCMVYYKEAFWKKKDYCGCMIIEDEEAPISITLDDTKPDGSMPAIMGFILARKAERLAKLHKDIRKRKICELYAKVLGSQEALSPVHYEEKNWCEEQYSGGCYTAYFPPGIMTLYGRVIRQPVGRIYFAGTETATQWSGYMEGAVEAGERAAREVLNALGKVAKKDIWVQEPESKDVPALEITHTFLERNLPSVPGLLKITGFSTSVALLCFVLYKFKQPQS
Chain of rat brain MAO-B (P19643 whole entry): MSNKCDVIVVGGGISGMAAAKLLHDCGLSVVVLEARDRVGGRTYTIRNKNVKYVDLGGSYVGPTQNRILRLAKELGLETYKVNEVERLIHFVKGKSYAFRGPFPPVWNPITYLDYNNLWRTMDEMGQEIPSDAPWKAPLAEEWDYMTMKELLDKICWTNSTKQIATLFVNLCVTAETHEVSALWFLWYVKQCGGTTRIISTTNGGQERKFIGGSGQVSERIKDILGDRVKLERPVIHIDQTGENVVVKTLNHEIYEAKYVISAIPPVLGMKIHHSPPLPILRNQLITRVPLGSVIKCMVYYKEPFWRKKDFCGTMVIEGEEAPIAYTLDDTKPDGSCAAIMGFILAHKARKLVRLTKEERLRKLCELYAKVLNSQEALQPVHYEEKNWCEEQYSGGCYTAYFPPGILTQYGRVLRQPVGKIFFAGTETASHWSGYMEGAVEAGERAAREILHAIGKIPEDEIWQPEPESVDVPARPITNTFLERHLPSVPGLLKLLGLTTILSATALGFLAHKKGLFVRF

For `C#CCN(C)CCc1ccc(O)c2ncccc12` [Compound 3, 5-[2-(methyl-2-propyn-1-ylamino)ethyl]-8-quinolinol], the CC50 in the data set on SHSY-5Y cells turned out to be 885 µM. In addition, the CC50 at 4 h in “in vitro” was above 1000 µM; in “in vitro” (LC50 (μM) SHSY-5Y, four hours incubation) it was 865 µM. The same molecule had a negative logarithm of the IC50 (pIC50) against rat brain MAO-B of 7.52 to 8.00. On rat brain MAO-B (rat brain), the “Inhibition of rat brain MAO-B in vitro (in words)” value is “potent inhibitors”. Moreover, the “MAO-A inhibition in striatum” value on MAO-A (mice, single i.p. injection, 5 or 10 mg/kg, one hour later) is “inhibited in a dose responsive fashion”. Moreover, on MAO-A (mice, single i.p. injection, small intestine, one hour later), the “MAO-A inhibition in intestine” value is recorded as “Reduced inhibition in the intestinal tissue versus striatal tissue”. The “Penetration of brain tissue” value at MAO-A (mouse, in vivo, ip) is on record as “able to penetrate brain tissue”.

The term pIC50 denotes the negative decadic logarithm of the IC50, by convention in mol/L. The low end stands for a large IC50, the high end for a small IC50.
